Legend:
D3 receptor [1] = target: T1, D3 receptor (Rattus norvegicus, UniProt P19020); format: in vivo; conditions: rats
D2 receptor = D2 receptor (Rattus norvegicus, UniProt P61169); test: Hypothermia in rats; format: in vivo; conditions: for Induction of hypothermia: compound alone
Aqueous solubility = format: physicochemical
D3 receptor [2] = target: T1, D3 receptor; test: D3 receptor binding assay, [3H]PD128907, rat brain; conditions: for Fold less potent than 6 at the D3 receptor: relative to compound 6

Chain of D2 receptor (P61169 whole entry): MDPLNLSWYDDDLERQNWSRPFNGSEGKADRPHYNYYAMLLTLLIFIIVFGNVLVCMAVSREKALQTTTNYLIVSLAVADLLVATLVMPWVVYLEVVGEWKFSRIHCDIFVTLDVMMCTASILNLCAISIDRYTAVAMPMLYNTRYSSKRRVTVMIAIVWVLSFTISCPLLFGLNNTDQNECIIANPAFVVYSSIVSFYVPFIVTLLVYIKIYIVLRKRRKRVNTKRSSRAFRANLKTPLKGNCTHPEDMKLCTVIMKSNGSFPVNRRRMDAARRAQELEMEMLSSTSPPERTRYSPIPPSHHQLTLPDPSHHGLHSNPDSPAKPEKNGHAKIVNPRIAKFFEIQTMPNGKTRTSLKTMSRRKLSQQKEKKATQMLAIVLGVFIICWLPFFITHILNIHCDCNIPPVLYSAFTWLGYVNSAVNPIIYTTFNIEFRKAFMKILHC
T1 sequence (P19020 whole entry): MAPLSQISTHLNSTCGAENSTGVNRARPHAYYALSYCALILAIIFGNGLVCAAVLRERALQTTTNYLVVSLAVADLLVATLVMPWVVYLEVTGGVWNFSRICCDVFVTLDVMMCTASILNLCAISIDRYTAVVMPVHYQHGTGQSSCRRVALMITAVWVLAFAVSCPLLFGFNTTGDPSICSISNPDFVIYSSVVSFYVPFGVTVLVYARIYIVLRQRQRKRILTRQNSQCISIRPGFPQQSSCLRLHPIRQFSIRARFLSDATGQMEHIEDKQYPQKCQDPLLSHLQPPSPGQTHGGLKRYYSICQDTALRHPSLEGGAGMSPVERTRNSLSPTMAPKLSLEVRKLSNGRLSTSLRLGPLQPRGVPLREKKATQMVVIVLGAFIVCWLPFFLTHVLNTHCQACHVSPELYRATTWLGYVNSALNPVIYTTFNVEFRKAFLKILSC

| Compound | Aqueous solubility (in words) (Aqueous solubility) | Induction of hypothermia (D2 receptor) | also measured |
| --- | --- | --- | --- |
| CCCN[C@H]1CCc2nc(N)sc2C1 [Compound 1, pramipexole, reference compound] |  | induction of hypothermia occurring at higher doses | Induction of yawning (D3 receptor [1]; compound alone, dose-response): increases in yawning were observed over low doses (0.01 to 0.1 mg/kg); In vivo functional profile at D3 and D2 receptors (D3 receptor [1]; concluded from yawning and hypothermia assays): preferential D3 agonist in vivo and a D2 agonist at higher doses |
| CCCN(CCCCNC(=O)c1ccc2ccccc2c1)[C@H]1CCc2nc(N)sc2C1 [Compound 5] | good aqueous solubility | hypothermia was induced by 5 at higher doses |  |
| CC(C)CCN(CC[C@H]1CC[C@H](NC(=O)c2ccc3ccccc3c2)CC1)[C@H]1CCc2nc(N)sc2C1 [Compound 8] |  |  | Fold less potent than 6 at the D3 receptor (D3 receptor [2]): 5 times |
| CCCN(CC[C@H]1CC[C@H](NC(=O)c2ccc3ccccc3c2)CC1)[C@H]1CCc2nc(N)sc2C1.Cl.Cl [Compound 6] | good aqueous solubility | failed to induce changes in body temperature over the initial hour of observation |  |
| Nc1nc2c(s1)C[C@@H](NCC[C@H]1CC[C@H](NC(=O)c3ccc4ccccc4c3)CC1)CC2 [Compound 10] |  |  | Fold less potent than 6 at the D3 receptor (D3 receptor [2]): 19 times |

Continued, in another order:

| Aqueous solubility (in words) (Aqueous solubility) | Compound | Induction of hypothermia (D2 receptor) | also measured |
| --- | --- | --- | --- |
| good aqueous solubility | CCCN(CC[C@H]1CC[C@H](NC(=O)/C=C/c2ccccc2)CC1)[C@H]1CCc2nc(N)sc2C1 [Compound 12] | failed to induce changes in body temperature over the initial hour of observation | Effect on compound 1-induced hypothermia (D2 receptor; pretreatment with 12): failed to alter the induction of hypothermia by 1 |
| poor aqueous solubility | COc1ccc2c(c1)CC[C@@H]1CN(CC[C@H]3CC[C@H](NC(=O)c4ccc5ccccc5c4)CC3)CCN21 [Compound 4, reference compound] |  | Selectivity D1-like/D3 (D3 receptor [2]; ratio of Ki values): >5000 fold; Selectivity D2-like/D3 (D3 receptor [2]; ratio of Ki values, high affinity D2 component where 2-site fit): >1000 fold |

Reference: PMC2662387 (Journal of medicinal chemistry, 2008)
